From patent publication US20030109702A1, “Pyrazolyl benzyl ethers” (priority 1999, published 2003) come the findings set out here.

The subject of one series is Meloidogyne incognita. Briefly: Meloidogyne test. Format: in vivo. Conditions: lettuce in sand, concentration of active compound 20 ppm. On the procedure: [table] To produce a suitable preparation of active compound, 1 part by weight of active compound is mixed with the stated amounts of solvent and emulsifier, and the concentrate is diluted with water to the desired concentration. Containers are filled with sand, solution of active compound, Meloidogyne incognita egg/larvae suspension and lettuce seeds. The lettuce seeds germinate and the plants develop. On the roots, galls are formed. After the desired period of time, the nematicidal action is determined in % via the formation of galls. 100% means that no galls were found; 0% means that the number of galls on the treated plants corresponds to that on the untreated control.
Regarding `CON=C(C1=NOCCO1)c1ccccc1COc1ccn(-c2ccc(C#N)cc2)n1` [Example 12], the “kill rate (nematicidal action via the formation of galls)” value is on record as 100%.
`CON=C(C1=NOCCO1)c1ccccc1COc1ccn(-c2ccc(Cl)cc2)n1` [Example 1, [2-({[1-(4-chlorophenyl)-1H-pyrazol-3-yl]oxy}methyl)phenyl](5,6-dihydro-1,4,2-dioxazin-3-yl)methanone O-methyl oxime]: the “kill rate (nematicidal action via the formation of galls)” value is 100%.

System in a further series: not listed separately
Briefly: physchem.
Conditions: not given
As for `CON=C(C1=NOCCO1)c1ccccc1COc1ccn(-c2cc(Cl)cc(Cl)c2)n1` [Example 7], the chromatographic logP is 4.24.
Same read-out and setting: as for `CON=C(C1=NOCCO1)c1ccccc1COc1ccn(-c2ccccc2F)n1` [Example 20], the figure is 3.19; as for `CON=C(C1=NOCCO1)c1ccccc1COc1ccn(-c2ccc(C#N)cc2)n1` [Example 12], 2.89.
On the same count and under the same terms, with `CON=C(C1=NOCCO1)c1ccccc1COc1ccn(-c2c(Cl)cccc2Cl)n1` [Example 17] the figure was 4.08.
Same read-out and setting: with `CON=C(C1=NOCCO1)c1ccccc1COc1ccn(Cc2cccc(C)c2)n1` [Example 32] the figure was 3.11; with `CCc1ccc(-n2ccc(OCc3ccccc3C(=NOC)C3=NOCCO3)n2)cc1` [Example 42], 3.76; with `CON=C(C1=NOCCO1)c1ccccc1COc1ccn(-c2cc(C)cc(C)c2)n1` [Example 30], 3.79.
Take `CON=C(C1=NOCCO1)c1ccccc1COc1ccn(-c2ccc(I)cc2)n1` [Example 46]: the chromatographic logP turned out to be 3.84.
Same read-out and setting: as for `CON=C(C1=NOCCO1)c1ccccc1COc1ccn(-c2ccccc2OC)n1` [Example 48], the figure is 2.87.
The compound `CON=C(C1=NOCCO1)c1ccccc1COc1ccn(-c2ccc(F)cc2)n1` [Example 4] had a chromatographic logP of 3.15.
Same read-out and setting: as for `CON=C(C1=NOCCO1)c1ccccc1COc1ccn(-c2cc(C)ccc2C)n1` [Example 22], the figure is 3.52; as for `CON=C(C1=NOCCO1)c1ccccc1COc1ccn(Cc2ccc(C(C)(C)C)cc2)n1` [Example 33], 3.97; as for `CON=C(C1=NOCCO1)c1ccccc1COc1ccn(-c2c(Cl)cc(Cl)cc2Cl)n1` [Example 24], 3.74.
On the same count and under the same terms, with `C=CCn1ccc(OCc2ccccc2C(=NOC)C2=NOCCO2)n1` [Example 44] the figure was 2.61.
As to `CON=C(C1=NOCCO1)c1ccccc1COc1ccn(Cc2ccc(Cl)cc2)n1` [Example 36], the chromatographic logP is 3.19.
For `CON=C(C1=NOCCO1)c1ccccc1COc1ccn(-c2ccc(OC)cc2)n1` [Example 39], the chromatographic logP was 3.
Compound `CON=C(C1=NOCCO1)c1ccccc1COc1ccn(-c2ccccc2)n1` [Example 13] returned a chromatographic logP of 3.06. The chromatographic logP values of the last two compounds are within 0.2 log units of each other.
The same measure, in the same setting: with `CON=C(C1=NOCCO1)c1ccccc1COc1ccn(CC2CCCCC2)n1` [Example 334] the figure was 3.52; with `CON=C(C1=NOCCO1)c1ccccc1COc1ccn(-c2ccc(Cl)c(Cl)c2)n1` [Example 6], 4.02; with `CCc1ccccc1-n1ccc(OCc2ccccc2C(=NOC)C2=NOCCO2)n1` [Example 26], 3.47.
Same read-out and setting: as for `CON=C(C1=NOCCO1)c1ccccc1COc1ccn(-c2cccc(F)c2)n1` [Example 21], the figure is 3.24; as for `CON=C(C1=NOCCO1)c1ccccc1COc1ccn(-c2ccccc2Br)n1` [Example 2], 3.21.
Still for that read-out and setting: as for `CON=C(C1=NOCCO1)c1ccccc1COc1ccn(-c2ccc(Br)cc2)n1` [Example 3], the figure is 3.67; as for `CON=C(C1=NOCCO1)c1ccccc1COc1ccn(-c2ccc(C)cc2)n1` [Example 5], 3.4; as for `CON=C(C1=NOCCO1)c1ccccc1COc1ccn(-c2ccccc2Cl)n1` [Example 9], 3.2.
Regarding `CON=C(C1=NOCCO1)c1ccccc1COc1ccn(-c2cccc(Br)c2)n1` [Example 10], the chromatographic logP turned out to be 3.68.
The same measure, in the same setting: with `CON=C(C1=NOCCO1)c1ccccc1COc1ccn(-c2cccc(Cl)c2)n1` [Example 8] the figure was 3.59; with `CCOc1ccccc1-n1ccc(OCc2ccccc2C(=NOC)C2=NOCCO2)n1` [Example 43], 3.43; with `CON=C(C1=NOCCO1)c1ccccc1COc1ccn(-c2cccc(Cl)c2Cl)n1` [Example 18], 3.59.
As for `CON=C(C1=NOCCO1)c1ccccc1COc1ccn(-c2cccc(C)c2C)n1` [Example 28], the chromatographic logP came to 3.68. This chromatographic logP and that of the compound before are within 0.2 log units of each other.
Still for that read-out and setting: with `CON=C(C1=NOCCO1)c1ccccc1COc1ccn(-c2ccc(C(C)(C)C)cc2)n1` [Example 15] the figure was 4.33; with `CON=C(C1=NOCCO1)c1ccccc1COc1ccn(-c2ccc(Cl)cc2Cl)n1` [Example 14], 3.78; with `CON=C(C1=NOCCO1)c1ccccc1COc1ccn(Cc2ccccc2)n1` [Example 35], 2.79.
On to `CON=C(C1=NOCCO1)c1ccccc1COc1ccn(-c2ccc(C(C)C)cc2)n1` [Example 16], for which the chromatographic logP worked out at 4.08.
Same read-out and setting: as for `CON=C(C1=NOCCO1)c1ccccc1COc1ccn(-c2ccc(F)cc2F)n1` [Example 19], the figure is 3.28; as for `CON=C(C1=NOCCO1)c1ccccc1COc1ccn(-c2ccc(C)cc2C)n1` [Example 25], 3.5.
As to `CON=C(C1=NOCCO1)c1ccccc1COc1ccn(-c2ccccc2C)n1` [Example 11], the chromatographic logP was determined as 3.15.
Still for that read-out and setting: as for `CON=C(C1=NOCCO1)c1ccccc1COc1ccn(-c2cc(Cl)ccc2Cl)n1` [Example 27], the figure is 3.74; as for `CON=C(C1=NOCCO1)c1ccccc1COc1ccn(-c2cccc3ccccc23)n1` [Example 31], 3.51; as for `CON=C(C1=NOCCO1)c1ccccc1COc1ccn(-c2ccc(C)c(C)c2)n1` [Example 29], 3.68.

For another series, the system named is green peach aphid (Myzus persicae). Briefly: Myzus test. Format: in vivo. The settings on record: broad bean seedlings dipped, concentration of active compound 1000 ppm. On the procedure:
[table] To produce a suitable preparation of active compound, 1 part by weight of active compound is mixed with the stated amount of solvent and the stated amount of emulsifier, and the concentrate is diluted with emulsifier-containing water to the desired concentrations. Broad bean seedlings (Vicia faba) infested by the green peach aphid (Myzus persicae) are dipped into a preparation of active compound of the desired concentration and placed into a dish made of plastic. After the desired period of time, the kill in % is determined. 100% means that all of the animals have been killed; 0% means that none of the animals have been killed.
Regarding `CON=C(C1=NOCCO1)c1ccccc1COc1ccn(-c2ccc(Cl)cc2)n1` [Example 1, [2-({[1-(4-chlorophenyl)-1H-pyrazol-3-yl]oxy}methyl)phenyl](5,6-dihydro-1,4,2-dioxazin-3-yl)methanone O-methyl oxime], the kill rate turned out to be 90%.
